Like-named read-outs stand apart in the source and are kept apart here. Values belong to the compound of their own block, whether it stands above or below them.
Columns and labels:
FLT3 = target: T1, FLT3 (Homo sapiens, UniProt P36888); assay: FLT3 kinase ADP Hunter Plus assay; assay type: biochemical; conditions: for FLT3 experimental hit classification: hit definition IC50 < 10µM
T1 construct: purchased Invitrogen PV3182
T1 sequence (P36888 564-993 limits assumed): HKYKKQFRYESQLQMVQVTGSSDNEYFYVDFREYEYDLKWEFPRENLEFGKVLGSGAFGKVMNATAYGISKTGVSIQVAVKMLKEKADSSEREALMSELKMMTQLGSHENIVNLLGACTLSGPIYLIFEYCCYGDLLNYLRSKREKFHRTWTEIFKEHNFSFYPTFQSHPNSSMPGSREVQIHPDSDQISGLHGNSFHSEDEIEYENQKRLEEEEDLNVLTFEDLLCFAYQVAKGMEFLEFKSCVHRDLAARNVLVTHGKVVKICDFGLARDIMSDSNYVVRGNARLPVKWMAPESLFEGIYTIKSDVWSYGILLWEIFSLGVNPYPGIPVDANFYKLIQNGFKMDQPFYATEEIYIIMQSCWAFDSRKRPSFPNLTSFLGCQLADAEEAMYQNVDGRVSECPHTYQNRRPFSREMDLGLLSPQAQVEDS
Procedure: Kinase activity was measured with the commercial ADP Hunter™ Plus assay (DiscoveRx Ref. #33-016), a homogeneous assay measuring ADP accumulation, as a universal product of kinase activity. The assay was conducted following the manufacturer’s recommendations and adapting the protein and substrate concentrations for optimal conditions. The kinase assay buffer was 15 mM HEPES, pH 7.4, 20 mM NaCl, 1 mM EGTA, 0.02% Tween-20, 10 mM MgCl2 and 0.1 mg/ml BGG (bovine γ-globulin). All PIM kinase assays were performed with 100 µM ABLtide ([…]) from GenScript as the peptide substrate and 100 µM ATP. Protein concentration (from Invitrogen, PV3182) was 0.4 ng/µl. To calculate the IC50 of the ETP-compounds, serial 1∶3 dilutions were prepared and the reaction was started with the addition of ATP. The reaction was incubated for 1 h at 37°C. Reagents A and B (DiscoveRx) were sequentially added to the wells, and the plates were incubated for 30 min at 25°C. Fluorescence counts were read in an EnVision 2104 Multilabel Reader (Perkin Elmer) with the recommended settings (544 and 580 nm as the excitation and emission wavelengths, respectively). Values were plotted against the inhibitor concentrations and fit to a sigmoid dose–response curve using ActivityBase software.

PIM-2 [1] = target: T2, PIM-2 (Homo sapiens, UniProt Q9P1W9); parameters: method as in PMID 21051136; conditions: cited from earlier work
EGF-R = EGF-R (Homo sapiens, UniProt P00533); parameters: method as in PMID 21051136; conditions: 10 µM; average of two data points; cited from earlier work
FAK [2] = target: T3, FAK (Homo sapiens, UniProt Q05397); parameters: method as in PMID 21051136; conditions: 10 µM; average of two data points; cited from earlier work
FGF-R1 = FGF-R1 (Homo sapiens, UniProt P11362); parameters: method as in PMID 21051136; conditions: 10 µM; average of two data points; cited from earlier work
INS-R = INS-R (Homo sapiens, UniProt P06213); parameters: method as in PMID 21051136; conditions: 10 µM; average of two data points; cited from earlier work
PIM-3 = PIM-3 (Homo sapiens, UniProt Q86V86); assay: PIM-3 kinase ADP Hunter Plus assay; assay type: biochemical; conditions: 100 µM ATP
Procedure: Kinase activity was measured with the commercial ADP Hunter™ Plus assay (DiscoveRx Ref. #33-016), a homogeneous assay measuring ADP accumulation, as a universal product of kinase activity. The assay was conducted following the manufacturer’s recommendations and adapting the protein and substrate concentrations for optimal conditions. The kinase assay buffer was 15 mM HEPES, pH 7.4, 20 mM NaCl, 1 mM EGTA, 0.02% Tween-20, 10 mM MgCl2 and 0.1 mg/ml BGG (bovine γ-globulin). All PIM kinase assays were performed with 100 µM PIMtide ([…]) as the peptide substrate and 100 µM ATP. The protein concentrations were 50, 350 and 500 ng/µl for PIM-1, 2 and 3, respectively. To calculate the IC50 of the ETP-compounds, serial 1∶5 dilutions were prepared and the reaction was started with the addition of ATP. The reaction was incubated for 1 h at 25°C. Reagents A and B (DiscoveRx) were sequentially added to the wells, and the plates were incubated for 30 min at 37°C. Fluorescence counts were read in a Victor instrument (Perkin Elmer) with the recommended settings (544 and 580 nm as the excitation and emission wavelengths, respectively). Values were plotted against the inhibitor concentrations and fit to a sigmoid dose–response curve using GraphPad software.

IKK-β = IKK-β (Homo sapiens, UniProt O14920); assay: ProQinase kinase panel, % inhibition at fixed concentration; assay type: biochemical; conditions: average of two data points, read-out: IKK-β percentage of inhibition
Procedure: (§1) Off-target selectivity profiling was also performed for compounds 3 and 8 against a panel of 20 kinases (Table 3). […] When taking the differences in screening concentrations into consideration, we can only make unequivocal conclusions about FLT3 (based on the IC50 determination). […] The slight improvement observed for the remainder of the screened targets was likely due to the difference in concentrations.

MEK1 = MEK1 (Homo sapiens, UniProt Q02750); assay: as above; assay type: biochemical; conditions: read-out: MEK1 percentage of inhibition
Procedure: as §1

[3] = Metabolic stability in liver microsomes (Human); assay type: in vitro ADME; conditions: for Met. Stab. (Human), percentage of the original compound that remained: 1 µM, liver microsomes, 15 minutes
[4] = Metabolic stability in liver microsomes (Mouse); assay type: in vitro ADME; conditions: 1 µM, 15 minutes
[5] = Metabolic stability in liver microsomes (Rat); assay type: in vitro ADME; conditions: 1 µM, 15 minutes
PAMPA passive diffusion = assay type: in vitro ADME; conditions: LC/MS/MS after 4 hours of incubation at 2 µM; for Papp at 4 h, 2 µM: PAMPA, read-out: PAMPA Pe
Procedure: Therefore, to obtain more detailed information on this critical point, preliminary in vitro ADME profiling was performed for molecule 3. This profiling was mainly focused on hERG activity and on pharmacokinetics parameters, such as metabolic stability and PAMPA (an in vitro model for passive diffusion).

PIM-2 [6] = target: T2, PIM-2; assay: PIM-2 kinase ADP Hunter Plus assay; assay type: biochemical; conditions: 100 µM ATP
FAK [7] = target: T3, FAK; assay: ProQinase kinase panel, % inhibition at fixed concentration; assay type: biochemical
KIT = KIT (Homo sapiens, UniProt P10721); assay: as above; assay type: biochemical
[8] = ADP Hunter Plus, 100 µM ATP, read-out: FLT-3 IC50
[9] = hit definition % inhibition > 40, ligand at 5µM

T2 sequence (Q9P1W9 whole entry): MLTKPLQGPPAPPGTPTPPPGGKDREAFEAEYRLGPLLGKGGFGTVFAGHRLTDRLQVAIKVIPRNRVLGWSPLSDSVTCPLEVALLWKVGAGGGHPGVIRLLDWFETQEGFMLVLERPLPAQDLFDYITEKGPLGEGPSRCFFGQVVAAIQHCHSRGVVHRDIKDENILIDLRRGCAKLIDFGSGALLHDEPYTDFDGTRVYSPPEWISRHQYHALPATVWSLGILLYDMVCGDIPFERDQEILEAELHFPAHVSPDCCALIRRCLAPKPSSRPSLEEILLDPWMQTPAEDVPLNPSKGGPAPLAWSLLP
T3 sequence (Q05397 whole entry, species assumed): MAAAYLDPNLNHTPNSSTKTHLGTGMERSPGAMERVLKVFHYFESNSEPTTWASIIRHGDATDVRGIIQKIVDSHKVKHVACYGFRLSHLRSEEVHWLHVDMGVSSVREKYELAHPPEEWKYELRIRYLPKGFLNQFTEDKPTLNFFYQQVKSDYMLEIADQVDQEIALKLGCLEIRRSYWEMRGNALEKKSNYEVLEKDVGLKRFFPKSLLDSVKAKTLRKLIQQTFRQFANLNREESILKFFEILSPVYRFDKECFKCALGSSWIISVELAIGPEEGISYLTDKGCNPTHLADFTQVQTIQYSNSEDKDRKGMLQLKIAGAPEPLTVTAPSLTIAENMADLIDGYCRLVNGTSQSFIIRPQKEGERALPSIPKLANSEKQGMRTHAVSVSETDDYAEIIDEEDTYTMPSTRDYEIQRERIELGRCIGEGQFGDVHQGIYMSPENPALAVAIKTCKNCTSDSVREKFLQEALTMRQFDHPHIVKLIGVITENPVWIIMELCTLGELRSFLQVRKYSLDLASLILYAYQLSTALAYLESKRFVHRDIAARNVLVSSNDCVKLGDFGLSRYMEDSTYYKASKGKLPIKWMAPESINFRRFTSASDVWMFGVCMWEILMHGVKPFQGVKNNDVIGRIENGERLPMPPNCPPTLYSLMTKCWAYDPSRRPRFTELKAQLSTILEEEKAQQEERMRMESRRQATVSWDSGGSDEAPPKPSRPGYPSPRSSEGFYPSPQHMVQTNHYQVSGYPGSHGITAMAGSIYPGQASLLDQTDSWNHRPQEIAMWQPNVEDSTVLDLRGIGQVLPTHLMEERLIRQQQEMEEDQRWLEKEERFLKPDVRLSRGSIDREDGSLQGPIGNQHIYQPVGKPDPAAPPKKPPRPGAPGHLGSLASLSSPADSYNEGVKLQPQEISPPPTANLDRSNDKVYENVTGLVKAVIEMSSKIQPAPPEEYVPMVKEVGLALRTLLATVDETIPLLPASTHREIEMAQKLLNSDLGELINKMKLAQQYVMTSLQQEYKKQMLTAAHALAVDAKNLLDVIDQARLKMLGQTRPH
Sequence of KIT (P10721 26-976, species assumed): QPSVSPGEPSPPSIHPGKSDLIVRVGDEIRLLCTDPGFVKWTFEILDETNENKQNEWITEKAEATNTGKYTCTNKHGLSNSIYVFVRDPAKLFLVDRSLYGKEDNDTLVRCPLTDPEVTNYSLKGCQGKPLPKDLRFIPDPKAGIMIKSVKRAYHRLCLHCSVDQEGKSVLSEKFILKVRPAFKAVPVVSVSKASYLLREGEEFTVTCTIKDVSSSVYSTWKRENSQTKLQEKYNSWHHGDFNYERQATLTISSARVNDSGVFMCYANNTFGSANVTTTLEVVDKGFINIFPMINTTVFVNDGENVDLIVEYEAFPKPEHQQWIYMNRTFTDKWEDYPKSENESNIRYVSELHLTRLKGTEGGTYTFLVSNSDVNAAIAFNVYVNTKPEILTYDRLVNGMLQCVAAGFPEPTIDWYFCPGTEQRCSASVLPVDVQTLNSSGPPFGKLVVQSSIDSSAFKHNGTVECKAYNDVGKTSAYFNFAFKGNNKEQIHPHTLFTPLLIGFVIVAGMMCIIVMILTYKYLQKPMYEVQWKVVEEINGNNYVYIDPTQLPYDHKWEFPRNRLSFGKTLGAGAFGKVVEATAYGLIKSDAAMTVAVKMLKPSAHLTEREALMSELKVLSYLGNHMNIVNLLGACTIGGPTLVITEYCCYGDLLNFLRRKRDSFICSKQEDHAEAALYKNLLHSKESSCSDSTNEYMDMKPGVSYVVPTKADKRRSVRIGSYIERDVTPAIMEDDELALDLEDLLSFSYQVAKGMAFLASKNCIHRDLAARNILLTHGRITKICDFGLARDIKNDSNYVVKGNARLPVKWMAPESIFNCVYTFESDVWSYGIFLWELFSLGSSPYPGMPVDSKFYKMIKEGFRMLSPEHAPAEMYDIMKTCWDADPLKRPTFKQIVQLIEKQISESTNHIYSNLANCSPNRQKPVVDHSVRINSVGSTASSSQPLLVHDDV
Sequence of MEK1 (Q02750 whole entry, species assumed): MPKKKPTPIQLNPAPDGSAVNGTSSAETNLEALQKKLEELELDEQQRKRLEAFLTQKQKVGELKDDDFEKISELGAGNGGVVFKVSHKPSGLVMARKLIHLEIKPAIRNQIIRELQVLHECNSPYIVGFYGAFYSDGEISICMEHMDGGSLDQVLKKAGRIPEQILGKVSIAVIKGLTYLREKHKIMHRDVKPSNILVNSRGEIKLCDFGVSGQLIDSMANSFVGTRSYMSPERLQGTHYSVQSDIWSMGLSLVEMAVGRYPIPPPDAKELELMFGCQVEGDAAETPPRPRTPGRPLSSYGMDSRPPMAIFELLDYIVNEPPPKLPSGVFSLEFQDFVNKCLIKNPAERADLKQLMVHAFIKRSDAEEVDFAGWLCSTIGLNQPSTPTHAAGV
Sequence of IKK-β (O14920 whole entry, species assumed): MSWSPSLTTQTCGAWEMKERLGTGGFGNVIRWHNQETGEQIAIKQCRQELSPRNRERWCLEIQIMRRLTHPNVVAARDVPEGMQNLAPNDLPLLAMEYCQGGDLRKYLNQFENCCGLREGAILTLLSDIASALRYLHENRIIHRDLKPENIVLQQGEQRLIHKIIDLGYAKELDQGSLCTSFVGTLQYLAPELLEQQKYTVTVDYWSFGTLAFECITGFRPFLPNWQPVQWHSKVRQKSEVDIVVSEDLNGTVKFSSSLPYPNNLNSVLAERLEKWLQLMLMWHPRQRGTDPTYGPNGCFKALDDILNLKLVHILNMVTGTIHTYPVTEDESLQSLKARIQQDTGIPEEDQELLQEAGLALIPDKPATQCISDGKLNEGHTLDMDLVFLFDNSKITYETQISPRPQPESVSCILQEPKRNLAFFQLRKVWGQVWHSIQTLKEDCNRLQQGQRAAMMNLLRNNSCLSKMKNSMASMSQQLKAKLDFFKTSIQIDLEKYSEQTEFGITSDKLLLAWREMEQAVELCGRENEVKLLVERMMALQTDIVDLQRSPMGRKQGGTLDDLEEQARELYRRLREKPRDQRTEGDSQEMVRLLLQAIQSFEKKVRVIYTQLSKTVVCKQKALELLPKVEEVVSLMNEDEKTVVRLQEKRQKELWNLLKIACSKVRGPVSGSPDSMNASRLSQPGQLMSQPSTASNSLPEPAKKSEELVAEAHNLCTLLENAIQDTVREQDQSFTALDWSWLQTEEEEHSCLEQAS
Sequence of FGF-R1 (P11362 22-822, species assumed): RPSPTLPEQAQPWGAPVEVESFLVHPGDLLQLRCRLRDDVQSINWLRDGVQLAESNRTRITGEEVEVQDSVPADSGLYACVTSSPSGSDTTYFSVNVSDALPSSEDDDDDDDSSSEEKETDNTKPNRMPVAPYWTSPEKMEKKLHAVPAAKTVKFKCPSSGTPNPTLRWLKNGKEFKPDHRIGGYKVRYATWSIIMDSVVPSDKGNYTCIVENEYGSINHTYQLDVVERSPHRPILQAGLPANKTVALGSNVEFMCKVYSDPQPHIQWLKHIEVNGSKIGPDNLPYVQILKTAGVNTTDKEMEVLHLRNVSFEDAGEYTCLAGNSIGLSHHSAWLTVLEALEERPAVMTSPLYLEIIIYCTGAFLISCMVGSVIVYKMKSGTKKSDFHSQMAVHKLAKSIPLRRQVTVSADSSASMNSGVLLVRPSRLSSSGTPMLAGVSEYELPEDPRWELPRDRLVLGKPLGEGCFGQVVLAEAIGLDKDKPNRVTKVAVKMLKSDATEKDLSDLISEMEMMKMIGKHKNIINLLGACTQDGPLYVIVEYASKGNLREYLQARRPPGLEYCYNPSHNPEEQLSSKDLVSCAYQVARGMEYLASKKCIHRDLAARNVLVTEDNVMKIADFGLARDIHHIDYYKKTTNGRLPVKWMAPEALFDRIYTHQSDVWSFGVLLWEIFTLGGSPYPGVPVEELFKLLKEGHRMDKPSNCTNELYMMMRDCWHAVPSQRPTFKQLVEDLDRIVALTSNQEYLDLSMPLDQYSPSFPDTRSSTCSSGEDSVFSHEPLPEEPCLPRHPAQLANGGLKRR
Sequence of INS-R (P06213 980-1382 limits assumed, species assumed): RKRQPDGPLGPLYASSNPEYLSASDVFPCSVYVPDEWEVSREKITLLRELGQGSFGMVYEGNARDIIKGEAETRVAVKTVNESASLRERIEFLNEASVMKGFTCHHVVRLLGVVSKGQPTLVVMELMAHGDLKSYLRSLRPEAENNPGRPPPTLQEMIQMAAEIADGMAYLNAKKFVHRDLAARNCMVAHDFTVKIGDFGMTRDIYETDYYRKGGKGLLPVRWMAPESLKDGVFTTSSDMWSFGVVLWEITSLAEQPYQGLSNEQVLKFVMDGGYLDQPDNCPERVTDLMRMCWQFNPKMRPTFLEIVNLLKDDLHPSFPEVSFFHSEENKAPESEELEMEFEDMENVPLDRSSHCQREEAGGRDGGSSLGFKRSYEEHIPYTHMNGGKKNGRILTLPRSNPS

- IC50 (FLT3; [8]): 1 nM
SMILES: Oc1ccc(-c2cnc3ccc(NCc4ccc(F)cc4)nn23)cc1 [Compound 1]
- IC50 (PIM-2 [1]): 420 nM
- EGF-R percentage of inhibition (EGF-R): 33%
- FAK percentage of inhibition (FAK [2]): 48%
- FGF-R1 percentage of inhibition (FGF-R1): 84%
- INS-R percentage of inhibition (INS-R): 67%

SMILES: CN1CCC(CNc2ccc3ncc(-c4cccc(OC(F)(F)F)c4)n3n2)CC1 [Compound 3, reference compound]
- IC50 (PIM-3): 46 nM
- IC50 (FLT3): 5 nM
- inhibition at 10 µM (IKK-β; inhibitor at 10 µM): 0%
- inhibition at 10 µM (MEK1): 11%
- Met. Stab. (Human), percentage of the original compound that remained [3]: 31%
- Met. Stab. (Mouse), percentage of the original compound that remained [4]: 5%
- Met. Stab. (Rat), percentage of the original compound that remained [5]: 23%
- Papp at 4 h, 2 µM (PAMPA passive diffusion): 0.0015 ×10⁻⁶ cm/s

- IC50 (PIM-2 [6]): 333 nM
- IC50 (PIM-3): 51 nM
- IC50 (FLT3; [8]): 1840 nM
- FLT3 experimental hit classification (FLT3): hit
- inhibition at 10 µM (FAK [7]; inhibitor at 10 µM, average of two data points, read-out: FAK percentage of inhibition): 38%
- KIT experimental hit classification (KIT; hit definition % inhibition > 50, ligand at 10µM): hit
- inhibition at 10 µM (KIT; inhibitor at 10 µM, average of two data points, read-out: KIT percentage of inhibition): 51%
SMILES: Oc1ccc(-n2nnc3ccc(NCc4ccc(F)cc4)nc32)cc1 [Compound 7, 4-[5-(4-Fluoro-benzylamino)-[1], [2], [3]triazolo[4,5-b]pyridin-3-yl]-phenol]
- KIT improvement in percentage of inhibition (KIT; compound 7 vs compound 1, 10 µM): b (This designation indicates that the improvement in percentage of inhibition was equal or greater than 25%)

- IC50 (PIM-2 [6]): 4950 nM
- IC50 (PIM-3): 724 nM
- IC50 (FLT3; [8]): 1320 nM
- FLT3 experimental hit classification (FLT3): hit
- FAK experimental hit classification (FAK [7]; [9]): not a FAK hit
- inhibition at 5 µM (FAK [7]; inhibitor at 5 µM, average of two data points, read-out: FAK percentage of inhibition): 34%
- KIT increment in percentage of inhibition (KIT; compound 8 (5 µM) versus compound 3 (10 µM)): > 50%
- KIT experimental hit classification (KIT; [9]): hit
- inhibition at 5 µM (KIT; inhibitor at 5 µM, average of two data points, read-out: KIT percentage of inhibition): 44%
- inhibition at 5 µM (IKK-β; inhibitor at 5 µM): 3%
- inhibition at 5 µM (MEK1; inhibitor at 5 µM, average of two data points): 33%
- Met. Stab. (Human), percentage of the original compound that remained [3]: 77%
- increase in metabolic stability in human liver microsomes ([3]; molecule 8 vs compound 3): more than 45%
- Met. Stab. (Mouse), percentage of the original compound that remained [4]: 27%
- Met. Stab. (Rat), percentage of the original compound that remained [5]: 35%
- PAMPA Pe (PAMPA passive diffusion): 0.74 10^-6 cm/s
- Papp at 4 h, 2 µM (PAMPA passive diffusion): ~1 ×10⁻⁶ cm/s
SMILES: CN1CCC(CNc2ccc3nnn(-c4cccc(OC(F)(F)F)c4)c3n2)CC1 [Compound 8, (1-Methyl-piperidin-4-ylmethyl)-[3-(3-trifluoromethoxy-phenyl)-3H-[1], [2], [3]triazolo[4,5-b]pyridin-5-yl]-amine]
- KIT improvement in percentage of inhibition (KIT; compound 8 (5 µM) vs compound 3 (10 µM)): c (This designation indicates that the improvement in percentage of inhibition was greater than 50%)

— paper PMC3480357, “Fragment-Hopping-Based Discovery of a Novel Chemical Series of Proto-Oncogene PIM-1 Kinase Inhibitors” (PLoS ONE, 2012)
